Here are results for 32 compounds from US9670142B2, “1,3-diaminocyclopentane carboxamide derivatives” (Merck Patent GmbH, priority 2013, dated 2017).

The structures appear in SMILES notation.

The experiment deals with human fatty acid synthase FASN (Homo sapiens (Human), UniProt P49327). Briefly: Biochemical activity testing of human fatty acid synthase FASN (NADPH fluorescence intensity enzyme assay). The following applies: human recombinant full-length fatty acid synthase. In a few lines: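 In-house Sf9-expressed full-length enzyme (3 μL of 40 nM) in 50 mM potassium phosphate pH 7.0 with glutathione, BSA and Tween-20, plus NADPH (2 μL of 200 μM), preincubated ≥15 min with compound (10 concentrations from 30 μM final, 1% DMSO). Acetyl-CoA/malonyl-CoA added; NADPH fluorescence (ex 340/em 460 nm) read before and after 30 min at room temperature, difference used for IC50.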
human fatty acid synthase FASN, sequence (P49327 whole entry): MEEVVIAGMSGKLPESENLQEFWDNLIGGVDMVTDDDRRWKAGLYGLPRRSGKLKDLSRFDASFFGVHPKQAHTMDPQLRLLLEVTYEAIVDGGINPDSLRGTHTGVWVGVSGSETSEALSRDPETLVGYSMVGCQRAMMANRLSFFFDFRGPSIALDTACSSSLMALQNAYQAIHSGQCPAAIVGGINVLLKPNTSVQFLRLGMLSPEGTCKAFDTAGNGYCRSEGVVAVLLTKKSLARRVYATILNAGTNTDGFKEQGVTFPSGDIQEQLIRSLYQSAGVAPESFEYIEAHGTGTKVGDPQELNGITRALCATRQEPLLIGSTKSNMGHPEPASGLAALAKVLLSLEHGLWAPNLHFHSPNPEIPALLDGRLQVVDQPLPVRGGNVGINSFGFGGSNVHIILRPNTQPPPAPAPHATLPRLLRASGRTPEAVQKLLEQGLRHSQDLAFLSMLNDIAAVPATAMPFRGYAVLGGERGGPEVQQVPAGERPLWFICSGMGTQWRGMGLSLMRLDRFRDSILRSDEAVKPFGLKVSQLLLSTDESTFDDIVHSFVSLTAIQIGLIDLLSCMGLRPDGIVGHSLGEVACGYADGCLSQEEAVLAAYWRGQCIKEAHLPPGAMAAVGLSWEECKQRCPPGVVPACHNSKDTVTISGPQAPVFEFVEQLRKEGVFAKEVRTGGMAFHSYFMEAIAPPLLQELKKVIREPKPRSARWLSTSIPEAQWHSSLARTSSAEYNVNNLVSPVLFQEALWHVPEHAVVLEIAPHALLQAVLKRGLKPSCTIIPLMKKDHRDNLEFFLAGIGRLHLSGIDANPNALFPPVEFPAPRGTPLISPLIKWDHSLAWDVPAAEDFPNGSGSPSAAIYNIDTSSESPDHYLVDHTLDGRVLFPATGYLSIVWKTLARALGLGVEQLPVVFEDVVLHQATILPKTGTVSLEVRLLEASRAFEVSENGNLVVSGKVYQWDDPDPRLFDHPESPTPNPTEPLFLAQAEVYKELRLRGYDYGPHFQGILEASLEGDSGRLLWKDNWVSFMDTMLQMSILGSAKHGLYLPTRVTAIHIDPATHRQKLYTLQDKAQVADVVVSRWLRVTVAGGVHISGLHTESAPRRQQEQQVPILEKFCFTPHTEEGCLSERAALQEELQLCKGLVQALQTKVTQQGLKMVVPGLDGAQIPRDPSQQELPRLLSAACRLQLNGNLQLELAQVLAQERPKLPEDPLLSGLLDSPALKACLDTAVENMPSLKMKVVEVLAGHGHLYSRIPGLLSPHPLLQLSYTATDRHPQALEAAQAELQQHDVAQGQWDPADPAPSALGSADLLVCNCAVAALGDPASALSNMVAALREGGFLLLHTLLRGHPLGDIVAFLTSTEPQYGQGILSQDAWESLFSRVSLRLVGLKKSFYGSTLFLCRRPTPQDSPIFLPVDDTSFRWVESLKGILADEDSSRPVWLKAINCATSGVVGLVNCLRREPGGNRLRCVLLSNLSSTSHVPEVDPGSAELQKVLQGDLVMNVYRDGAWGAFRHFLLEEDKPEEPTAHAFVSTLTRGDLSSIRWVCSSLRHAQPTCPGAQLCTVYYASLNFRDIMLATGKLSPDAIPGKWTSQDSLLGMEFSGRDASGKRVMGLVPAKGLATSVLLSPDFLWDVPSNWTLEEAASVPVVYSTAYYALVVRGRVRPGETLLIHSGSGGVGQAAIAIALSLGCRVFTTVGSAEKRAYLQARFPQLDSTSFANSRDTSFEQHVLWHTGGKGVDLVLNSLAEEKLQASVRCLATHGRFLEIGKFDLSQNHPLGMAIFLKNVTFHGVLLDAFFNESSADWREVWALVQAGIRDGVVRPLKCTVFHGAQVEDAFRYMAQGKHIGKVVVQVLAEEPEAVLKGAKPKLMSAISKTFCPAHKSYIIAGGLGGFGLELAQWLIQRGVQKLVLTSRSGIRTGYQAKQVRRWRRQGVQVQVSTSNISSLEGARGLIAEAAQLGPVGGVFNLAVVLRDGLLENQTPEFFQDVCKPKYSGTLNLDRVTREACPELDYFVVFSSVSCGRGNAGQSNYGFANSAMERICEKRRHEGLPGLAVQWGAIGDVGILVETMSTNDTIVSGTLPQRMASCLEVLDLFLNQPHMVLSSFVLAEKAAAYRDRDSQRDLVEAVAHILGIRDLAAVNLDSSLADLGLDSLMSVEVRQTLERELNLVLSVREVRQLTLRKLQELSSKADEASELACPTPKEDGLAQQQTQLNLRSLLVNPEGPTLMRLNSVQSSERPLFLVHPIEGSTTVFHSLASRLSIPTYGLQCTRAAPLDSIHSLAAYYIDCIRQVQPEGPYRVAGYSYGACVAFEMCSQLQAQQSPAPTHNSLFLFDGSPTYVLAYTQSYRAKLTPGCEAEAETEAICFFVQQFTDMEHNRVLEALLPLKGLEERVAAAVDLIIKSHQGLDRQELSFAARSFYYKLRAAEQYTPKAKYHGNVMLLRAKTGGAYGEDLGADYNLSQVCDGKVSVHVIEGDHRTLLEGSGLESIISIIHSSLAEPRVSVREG

Consider `CCC(=O)N[C@H]1CC[C@@H](N(C)C(=O)c2cnc(-c3cc(F)c4[nH]ccc4c3)cc2C)C1` [Compound A141, 6-(7-fluoro-1H-indol-5-yl)-4,N-dimethyl-N-((1R,3S)-3-propionylamino-cyclopentyl)-nicotinamide], for which the concentration for half-maximal inhibition (IC50) – broadly, the concentration that gives 50% inhibition – lay within 300 to 3000 nM.
As for `CCC(=O)N[C@H]1CC[C@@H](N(C)C(=O)c2ccc(-c3ccc(F)c(Cl)c3)cc2)C1` [Compound A63, 3′-chloro-4′-fluoro-biphenyl-4-carboxylic acid methyl-((1R,3S)-3-propionylamino-cyclopentyl)-amide], the IC50 is less than 300 nM.
For `CCC(=O)N[C@H]1CC[C@@H](N(C)C(=O)c2ccc(-c3ccc4c(ccn4C)c3)cc2F)C1` [Compound A111, 2-fluoro-N-methyl-4-(1-methyl-1H-indol-5-yl)-N-((1R,3S)-3-propionylamino-cyclopentyl)-benzamide], the IC50 is less than 300 nM.
For the compound `CCC(=O)N[C@H]1CC[C@@H](N(C)C(=O)c2ncc(-c3ccc4[nH]ccc4c3)cn2)C1` [Compound A131, 5-(1H-indol-5-yl)-pyrimidine-2-carboxylic acid methyl-((1R,3S)-3-propionylamino-cyclopentyl)-amide], the IC50 was less than 300 nM.
In the case of `C[C@H](O)C(=O)N[C@H]1CC[C@@H](N(C)C(=O)c2ccc(-c3nc4ccccc4o3)cc2)C1` [Compound A37, 4-benzoxazol-2-yl-N-[(1R,3S)-3-((S)-2-hydroxy-propionylamino)-cyclopentyl]-N-methyl-benzamide], the IC50 was less than 300 nM.
Next, `CCC(=O)N[C@H]1CC[C@@H](N(C)C(=O)c2ccc(-c3ccc(OC(F)(F)F)c(F)c3)cc2)C1` [Compound A98, 3′-fluoro-4′-trifluoromethoxy-biphenyl-4-carboxylic acid methyl-((1R,3S)-3-propionylamino-cyclopentyl)-amide]: less than 300 nM.
Turning to `CCC(=O)N[C@H]1CC[C@@H](N(C)C(=O)c2ccc(-c3ccc4c(c3)NC(=O)C4)cc2)C1` [Compound A60, N-methyl-4-(2-oxo-2,3-dihydro-1H-indol-6-yl)-N-((1R,3S)-3-propionylamino-cyclopentyl)-benzamide], the IC50 was less than 300 nM.
With `CCC(=O)N[C@H]1CC[C@@H](N(C)C(=O)c2ccc(-c3ccc(C(=O)OC)c(F)c3)cc2)C1` [Compound A69, 3-fluoro-4′-[methyl-((1R,3S)-3-propionylamino-cyclopentyl)-carbamoyl]-biphenyl-4-carboxylic acid methyl ester], the 50% inhibitory concentration (IC50) is less than 300 nM.
For the compound `CCC(=O)N[C@H]1CC[C@@H](N(C)C(=O)c2ccc(-c3ccc4[nH]ccc4c3)cc2)C1` [Compound A95, 4-(1H-indol-5-yl)-N-methyl-N-((1R,3S)-3-propionylamino-cyclopentyl)-benzamide], the IC50 is less than 300 nM.
Regarding `CN(C(=O)c1ccc(-c2nc3ccccc3o2)cc1)[C@@H]1CC[C@H](NC(=O)c2ccncc2)C1` [Compound A22, N-{(1S,3R)-3-[(4-benzoxazol-2-yl-benzoyl)-methyl-amino]-cyclopentyl}-isonicotinamide], the IC50 lay within 300 to 3000 nM.
Consider `CCC(=O)N[C@H]1CC[C@@H](N(C)C(=O)c2ccc(-c3ccc(OC)cc3C)cc2)C1` [Compound A65, 4′-methoxy-2′-methyl-biphenyl-4-carboxylic acid methyl-((1R,3S)-3-propionylamino-cyclopentyl)-amide], for which the half-maximal inhibitory concentration (IC50) was less than 300 nM.
`CN(C(=O)c1ccc(-c2nc3ccc(Cl)cc3o2)nc1)[C@@H]1CC[C@H](NC(=O)[C@@H]2CCCO2)C1` [Compound A154, 6-(6-chloro-benzoxazol-2-yl)-N-methyl-N-{(1R,3S)-3-[((S)-tetrahydro-furan-2-carbonyl)-amino]-cyclopentyl}-nicotinamide]: the half-inhibitory concentration (IC50) is less than 300 nM.
For `CCC(=O)N[C@H]1CC[C@@H](N(C)C(=O)c2ccc(-c3ccc4[nH]nc(C)c4c3)cc2)C1` [Compound A100, N-methyl-4-(3-methyl-1H-indazol-5-yl)-N-((1R,3S)-3-propionylamino-cyclopentyl)-benzamide], the IC50 was less than 300 nM.
`CCC(=O)N[C@H]1CC[C@@H](N(C)C(=O)c2ccc(-c3ccc4ncsc4c3)cc2)C1` [Compound A59, 4-benzothiazol-6-yl-N-methyl-N-((1R,3S)-3-propionylamino-cyclopentyl)-benzamide]: the IC50 was less than 300 nM.
As to `CCC(=O)N[C@H]1CC[C@@H](N(C)C(=O)c2ccc(-c3ccc4c(ccn4C)c3)c(F)c2)C1` [Compound A108, 3-fluoro-N-methyl-4-(1-methyl-1H-indol-5-yl)-N-((1R,3S)-3-propionylamino-cyclopentyl)-benzamide], the IC50 was less than 300 nM.
Turning to `CCC(=O)N[C@H]1CC[C@@H](N(C)C(=O)c2ccc(-c3cc(C)c4[nH]ncc4c3)cn2)C1` [Compound A104, 5-(7-methyl-1H-indazol-5-yl)-pyridine-2-carboxylic acid methyl-((1R,3S)-3-propionylamino-cyclopentyl)-amide], the IC50 is less than 300 nM.
Take `CCC(=O)N[C@H]1CC[C@@H](N(C)C(=O)c2ccc(-c3ccc4cn[nH]c4c3)cc2)C1` [Compound A46, 4-(1H-indazol-6-yl)-N-methyl-N-((1R,3S)-3-propionylamino-cyclopentyl)-benzamide]: the IC50 is less than 300 nM.
Turning to `CCC(=O)N[C@H]1CC[C@@H](N(C)C(=O)c2ccc(-c3ccc(Cl)cc3)cc2)C1` [Compound A5, 4′-chloro-biphenyl-4-carboxylic acid methyl-((1R,3S)-3-propionylamino-cyclopentyl)-amide], the IC50 is less than 300 nM.
Turning to `CCC(=O)N[C@H]1CC[C@@H](N(C)C(=O)c2ccc(-c3nc4ccc(Cl)cc4o3)cc2)C1` [Compound A128, 4-(6-chloro-benzoxazol-2-yl)-N-methyl-N-((1R,3S)-3-propionylamino-cyclopentyl)-benzamide], the IC50 is less than 300 nM.
In the case of `CC[C@@H](C)CC(=O)N[C@@H]1CC[C@@H](N(C)C(=O)c2ccc(-c3nc4ccccc4o3)cc2)C1` [Compound A168, 4-benzoxazol-2-yl-N-methyl-N-[(1R,3R)-3-((R)-3-methyl-pentanoylamino)-cyclopentyl]-benzamide], the half-maximal inhibitory concentration (IC50) lay within 3000 to 50000 nM.
Regarding `CCC(=O)N[C@H]1CC[C@@H](N(C)C(=O)c2ccc(-c3ccc4c(c3)C(F)(F)C(=O)N4)nc2)C1` [Compound A147, 6-(3,3-difluoro-2-oxo-2,3-dihydro-1H-indol-5-yl)-N-methyl-N-((1R,3S)-3-propionylamino-cyclopentyl)-nicotinamide], the half-inhibitory concentration (IC50) lay within 3000 to 50000 nM.
The value for `CCC(=O)N[C@H]1CC[C@@H](N(C)C(=O)c2ccc(-c3ccc(F)cc3F)cc2)C1` [Compound A83, 2′,4′-difluoro-biphenyl-4-carboxylic acid methyl-((1R,3S)-3-propionylamino-cyclopentyl)-amide] was less than 300 nM.
Consider `CCC(=O)N[C@H]1CC[C@@H](N(C)C(=O)c2ccc(-c3nc4ccccc4[nH]3)cc2)C1` [Compound A7, 4-(1H-benzimidazol-2-yl)-N-methyl-N-((1R,3S)-3-propionylamino-cyclopentyl)-benzamide], for which the IC50 was less than 300 nM.
With `CCC(=O)N[C@H]1CC[C@@H](N(C)C(=O)c2cnc(-c3ccc4[nH]ccc4c3F)c(F)c2)C1` [Compound A143, 5-fluoro-6-(4-fluoro-1H-indol-5-yl)-N-methyl-N-((1R,3S)-3-propionylamino-cyclopentyl)-nicotinamide], the IC50 is less than 300 nM.
`CCC(=O)N[C@H]1CC[C@@H](N(C)C(=O)c2cnc(-c3ccc4c(ccn4C)c3)cn2)C1` [Compound A125, 5-(1-methyl-1H-indol-5-yl)-pyrazine-2-carboxylic acid methyl-((1R,3S)-3-propionylamino-cyclopentyl)-amide]: the IC50 was less than 300 nM.
The value for `CCC(=O)N[C@H]1CC[C@@H](N(C)C(=O)c2ccc(-c3cc4cn[nH]c4cc3C)cn2)C1` [Compound A103, 5-(6-methyl-1H-indazol-5-yl)-pyridine-2-carboxylic acid methyl-((1R,3S)-3-propionylamino-cyclopentyl)-amide] was 300 to 3000 nM; that for `CCC(=O)N[C@H]1CC[C@@H](N(C)C(=O)c2ccc(-c3ccc4[nH]cc(CN)c4c3)cc2)C1` [Compound A130, 4-(3-aminomethyl-1H-indol-5-yl)-N-methyl-N-((1R,3S)-3-propionylamino-cyclopentyl)-benzamide] was less than 300 nM; that for `CCC(=O)N[C@H]1CC[C@@H](N(C)C(=O)c2ccc(-c3ccc(OC)cc3OC)cc2)C1` [Compound A88, 2′,4′-dimethoxy-biphenyl-4-carboxylic acid methyl-((1R,3S)-3-propionylamino-cyclopentyl)-amide] was less than 300 nM.
Next, `CCC(=O)N[C@H]1CC[C@@H](N(C)C(=O)c2ccc(-c3nc4cccc(F)c4o3)cc2)C1` [Compound A49, 4-(7-fluoro-benzoxazol-2-yl)-N-methyl-N-((1R,3S)-3-propionylamino-cyclopentyl)-benzamide]: less than 300 nM; `CN(C(=O)c1ccc(-c2nc3ccccc3o2)cc1)[C@@H]1CC[C@H](NC(=O)[C@@H]2CCCO2)C1` [Compound A41, (S)-tetrahydro-furan-2-carboxylic acid {(1S,3R)-3-[(4-benzoxazol-2-yl-benzoyl)-methyl-amino]-cyclopentyl}-amide]: less than 300 nM.
In the case of `CN(C)CC(=O)N[C@H]1CC[C@@H](N(C)C(=O)c2ccc(-c3nc4ccccc4o3)cc2)C1` [Compound A36, 4-benzoxazol-2-yl-N-[(1R,3S)-3-(2-dimethylamino-acetylamino)-cyclopentyl]-N-methyl-benzamide], the IC50 was 300 to 3000 nM.
For `CCC(=O)N[C@H]1CC[C@@H](N(C)C(=O)c2ccc(-c3ccc4nccn4c3)nc2)C1` [Compound A144, 6-imidazo[1,2-a]pyridin-6-yl-N-methyl-N-((1R,3S)-3-propionylamino-cyclopentyl)-nicotinamide], the IC50 is less than 300 nM.
